# Measurements reported in patent publication US8952024B2, “Herbicidal pyrimidone derivatives” (E I du Pont de Nemours and Company, priority 2009, dated 2015).
# What was measured:
# Experiment in all cases: Test B pre-/postemergence plant response
# Type in all cases: in vivo
# [1] = tested on: Italian ryegrass (Lolium multiflorum)
# How it was run: (§1)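 Plants treated either at seeding (loam/sand soil) or postemergence at 2 to 18 cm height, using a surfactant-containing non-phytotoxic solvent formulation. Evaluation was visual after 13 to 15 days, 0 to 100 scale relative to controls.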
# [2] = tested on: Surinam grass (Brachiaria decumbens)
# How it was run: as §1
# [3] = tested on: downy bromegrass (Bromus tectorum)
# How it was run: as §1
# [4] = tested on: goosegrass (Eleusine indica)
# How it was run: as §1
# [5] = tested on: green foxtail (Setaria viridis)
# How it was run: as §1
# [6] = tested on: lambsquarters (Chenopodium album)
# How it was run: as §1
# [7] = tested on: large crabgrass (Digitaria sanguinalis)
# How it was run: as §1
# [8] = tested on: pigweed (Amaranthus retroflexus)
# How it was run: as §1
# [9] = tested on: ragweed (common ragweed, Ambrosia elatior)
# How it was run: as §1
# [10] = tested on: velvetleaf (Abutilon theophrasti)
# How it was run: as §1
# [11] = tested on: wheat (Triticum aestivum)
# How it was run: as §1
# [12] = tested on: woolly cupgrass (Eriochloa villosa)
# How it was run: as §1
# [13] = tested on: yellow nutsedge (Cyperus esculentus)
# How it was run: as §1
# [14] = 62 g ai/ha, postemergence, 0 is no effect, 100 is complete control, 13 to 15 days
# [15] = Postemergence, 125 g ai/ha, scale 0 to 100 (0 no effect, 100 complete control)
# [16] = Postemergence, 250 g ai/ha, scale 0 to 100 (0 no effect, 100 complete control)
# [17] = Preemergence, 31 g ai/ha, scale 0 to 100 (0 no effect, 100 complete control)
# [18] = Preemergence, 62 g ai/ha, scale 0 to 100 (0 no effect, 100 complete control)
# [19] = Preemergence, 125 g ai/ha, scale 0 to 100, 0 no effect, 100 complete control
# [20] = Preemergence, 250 g ai/ha, 0 to 100 scale
# [21] = 31 g ai/ha, postemergence, scale 0 to 100, 0 is no effect, 100 is complete control
compound,measurement,setting,value
COCCn1c(-c2cc(F)cc(F)c2)ncc(C(=O)C2=C(O)CCCC2=O)c1=O [Compound 119],"Ryegrass, Italian plant response rating (0 to 100 scale)",[1]; [14],30
same,"Plant response rating, Ryegrass, Italian",[1]; [15],60
same,"Plant response rating, Ryegrass, Italian",[1]; [16],85
same,"Plant response rating, Ryegrass, Italian",[1]; [17],100
same,"Plant response rating, Ryegrass, Italian",[1]; [18],100
same,"Plant response rating, Ryegrass, Italian",[1]; [19],100
same,"Ryegrass, Italian plant response rating",[1]; [20],100
same,Surinam Grass plant response rating (0 to 100 scale),[2]; [14],85
same,"Plant response rating, Surinam Grass",[2]; [15],95
same,"Plant response rating, Surinam Grass",[2]; [16],98
same,"Plant response rating, Surinam Grass",[2]; [17],90
same,"Plant response rating, Surinam Grass",[2]; [18],98
same,"Plant response rating, Surinam Grass",[2]; [19],100
same,Surinam Grass plant response rating,[2]; [20],100
same,"Plant response rating, Bromegrass, Downy",[3]; [21],10
same,"Bromegrass, Downy plant response rating (0 to 100 scale)",[3]; [14],30
same,"Plant response rating, Bromegrass, Downy",[3]; [15],60
same,"Plant response rating, Bromegrass, Downy",[3]; [16],85
same,"Plant response rating, Bromegrass, Downy",[3]; [17],0
same,"Plant response rating, Bromegrass, Downy",[3]; [18],50
same,"Plant response rating, Bromegrass, Downy",[3]; [19],55
same,"Bromegrass, Downy plant response rating",[3]; [20],55
same,"Plant response rating, Goosegrass",[4]; [21],75
same,Goosegrass plant response rating (0 to 100 scale),[4]; [14],75
same,"Plant response rating, Goosegrass",[4]; [15],85
same,"Plant response rating, Goosegrass",[4]; [16],95
same,"Plant response rating, Goosegrass",[4]; [17],100
same,"Plant response rating, Goosegrass",[4]; [18],100
same,"Plant response rating, Goosegrass",[4]; [19],100
same,Goosegrass plant response rating,[4]; [20],100
same,"Plant response rating, Foxtail, Green",[5]; [21],85
same,"Foxtail, Green plant response rating (0 to 100 scale)",[5]; [14],90
same,"Plant response rating, Foxtail, Green",[5]; [15],95
same,"Plant response rating, Foxtail, Green",[5]; [16],100
same,"Plant response rating, Foxtail, Green",[5]; [17],95
same,"Plant response rating, Foxtail, Green",[5]; [18],100
same,"Plant response rating, Foxtail, Green",[5]; [19],100
same,"Foxtail, Green plant response rating",[5]; [20],100
same,"Plant response rating, Lambsquarters",[6]; [21],85
same,Lambsquarters plant response rating (0 to 100 scale),[6]; [14],100
same,"Plant response rating, Lambsquarters",[6]; [15],100
same,"Plant response rating, Lambsquarters",[6]; [16],100
same,"Plant response rating, Lambsquarters",[6]; [17],95
same,"Plant response rating, Lambsquarters",[6]; [18],98
same,"Plant response rating, Lambsquarters",[6]; [19],100
same,Lambsquarters plant response rating,[6]; [20],100
same,"Plant response rating, Crabgrass, Large",[7]; [21],75
same,"Crabgrass, Large plant response rating (0 to 100 scale)",[7]; [14],85
same,"Plant response rating, Crabgrass, Large",[7]; [15],95
same,"Plant response rating, Crabgrass, Large",[7]; [16],95
same,"Plant response rating, Crabgrass, Large",[7]; [17],100
same,"Plant response rating, Crabgrass, Large",[7]; [18],100
same,"Plant response rating, Crabgrass, Large",[7]; [19],100
same,"Crabgrass, Large plant response rating",[7]; [20],100
same,"Plant response rating, Pigweed",[8]; [21],95
same,Pigweed plant response rating (0 to 100 scale),[8]; [14],98
same,"Plant response rating, Pigweed",[8]; [15],100
same,"Plant response rating, Pigweed",[8]; [16],100
same,"Plant response rating, Pigweed",[8]; [17],80
same,"Plant response rating, Pigweed",[8]; [18],90
same,"Plant response rating, Pigweed",[8]; [19],100
same,Pigweed plant response rating,[8]; [20],100
same,Ragweed plant response rating (0 to 100 scale),[9]; [14],75
same,"Plant response rating, Ragweed",[9]; [15],95
same,"Plant response rating, Ragweed",[9]; [16],98
same,"Plant response rating, Ragweed",[9]; [17],80
same,"Plant response rating, Ragweed",[9]; [18],80
same,"Plant response rating, Ragweed",[9]; [19],95
same,Ragweed plant response rating,[9]; [20],95
same,Velvetleaf plant response rating (0 to 100 scale),[10]; [14],80
same,"Plant response rating, Velvetleaf",[10]; [15],100
same,"Plant response rating, Velvetleaf",[10]; [16],100
same,"Plant response rating, Velvetleaf",[10]; [17],75
same,"Plant response rating, Velvetleaf",[10]; [18],80
same,"Plant response rating, Velvetleaf",[10]; [19],100
same,Velvetleaf plant response rating,[10]; [20],100
same,Wheat plant response rating (0 to 100 scale),[11]; [14],40
same,"Plant response rating, Wheat",[11]; [15],60
same,"Plant response rating, Wheat",[11]; [17],0
same,"Plant response rating, Wheat",[11]; [18],0
same,"Plant response rating, Wheat",[11]; [19],30
same,Wheat plant response rating,[11]; [20],50
same,"Plant response rating, Cupgrass, Woolly",[12]; [21],75
same,"Cupgrass, Woolly plant response rating (0 to 100 scale)",[12]; [14],98
same,"Plant response rating, Cupgrass, Woolly",[12]; [15],98
same,"Plant response rating, Cupgrass, Woolly",[12]; [16],100
same,"Plant response rating, Cupgrass, Woolly",[12]; [17],65
same,"Plant response rating, Cupgrass, Woolly",[12]; [18],75
same,"Plant response rating, Cupgrass, Woolly",[12]; [19],95
same,"Cupgrass, Woolly plant response rating",[12]; [20],100
same,"Plant response rating, Nutsedge, Yellow",[13]; [21],10
same,"Nutsedge, Yellow plant response rating (0 to 100 scale)",[13]; [14],50
same,"Plant response rating, Nutsedge, Yellow",[13]; [15],65
same,"Plant response rating, Nutsedge, Yellow",[13]; [16],75
same,"Plant response rating, Nutsedge, Yellow",[13]; [17],75
same,"Plant response rating, Nutsedge, Yellow",[13]; [18],95
same,"Plant response rating, Nutsedge, Yellow",[13]; [19],98
same,"Nutsedge, Yellow plant response rating",[13]; [20],98
